Here are results for 11 molecules from publication PMC8310135 (Viruses, 2021).

Counter-ions that a name gives are not always drawn. Like-named read-outs stand apart in the source and are kept apart here.

Series [1] deals with Huh7 cells. Conditions: for CC50: human.
For series [2], the system named is rLUJV/ZsG. Kind of series: microbe, parasite or virus in culture. The following applies: for activity at 0.05 µM / activity at 0.5 µM / activity at 5 µM: Huh-7, read-out: Relative ZsG (%) Mean. It counts as cell-based, Lujo virus.
A short description of series [3]: in vitro. Conditions: human; for CC50: CC50 (50% cell cytotoxicity concentration).
Setting [4] is: Mammarenavirus lujoense, Huh-7, read-out: EC50 (concentration inhibiting ZsG expression by 50%).
The mark [5] stands for this setting: Mammarenavirus lujoense, 500 nM.
The mark [6] stands for this setting: Mammarenavirus lujoense, 5000 nM.
The mark [7] stands for this setting: read-out: EC50 (concentration inhibiting ZsG expression by 50%).

Consider `CC(C)C(=O)OC[C@H]1O[C@@H](n2ccc(N)nc2=O)[C@](C)(F)[C@@H]1OC(=O)C(C)C` [R-7128], for which the “Cell Viability (%) Mean” value came to 100% in series [1] (50 nM), 98% in series [1] (500 nM) and 103% in series [1] (5000 nM). Moreover, the “Relative ZsG (%) Mean” value is 133% in series [2] (50 nM), 80% in series [2] (500 nM) and 126% in series [2] (5000 nM).
As to `Cc1ccc(Nc2nccc(N(C)c3ccc4c(C)n(C)nc4c3)n2)cc1S(N)(=O)=O.Cl` [Pazopanib HCl], the “Cell Viability (%) Mean” value in series [1] (50 nM) worked out at 134%; in series [1] (500 nM) it was 116%; in series [1] (5000 nM) it was 54%. Moreover, the “Relative ZsG (%) Mean” value in series [2] (50 nM) stood at 77%; in series [2] (500 nM), 59%; in series [2] (5000 nM), 24%.
Take `NCC(=O)Nc1ccc(-n2nc(C(F)(F)F)cc2-c2ccc3c(ccc4ccccc43)c2)cc1` [AR-12]: half-maximal cytotoxicity in series [1] (CC50) was put at 5520 ± 1670 nM. The “SI (selectivity index, CC50 divided by EC50)” value in series [2] stood at 4.5. In addition, in series [2] (setting [4]), the EC50 was 1200 nM. In addition, the activity at 0.05 µM in series [2] (Mammarenavirus lujoense, 50 nM) came out at 74%. Besides, in series [2] (setting [5]), the activity at 0.5 µM came out at 54%. Also, in series [2] (setting [6]), the activity at 5 µM turned out to be 2%. In addition, the EC50 in series [2] (setting [7]) is 1220 ± 444 nM. For the same molecule, in series [3], the viability – broadly, a read-out of living cells in per cent, often relative to untreated cells – at 0.05 µM turned out to be 129%; the viability at 0.5 µM came out at 115%; the viability at 5 µM was 1%; the CC50 (commonly the concentration giving 50% cytotoxicity) is 5500 ± 1700 nM.
On to `Nc1cccc(-c2cc3c(Oc4cccc(O)c4)ncnc3[nH]2)c1` [TWS119], for which the “Cell Viability (%) Mean” value was found to be 135% in series [1] (50 nM), 124% in series [1] (500 nM) and 36% in series [1] (5000 nM). Further, the results for the “Relative ZsG (%) Mean” value in series [2] (50 nM), in series [2] (500 nM) and in series [2] (5000 nM) were 74%, 74% and 13%, respectively.
`COc1c(C)c2c(c(O)c1C/C=C(\C)CCC(=O)O)C(=O)OC2` [Mycophenolic acid (MPA), Mycophenolic acid] showed a CC50 in series [1] of 2040 nM. For the same molecule, the “SI (selectivity index, CC50 divided by EC50)” value in series [2] is on record as 8.6. For the same molecule, the EC50 in series [2] (setting [4]) was 240 ± 100 nM. Also, the activity at 0.05 µM in series [2] (Mammarenavirus lujoense, 50 nM) came to 72%. In addition, the activity at 0.5 µM in series [2] (setting [5]) turned out to be 7%. Further, the activity at 5 µM in series [2] (setting [6]) came to 2%. The EC50 in series [2] (setting [7]) amounted to 238 ± 97 nM. Besides, in series [3], the viability at 0.05 µM came out at 132%, the viability at 0.5 µM worked out at 100%, the viability at 5 µM is 48% and half-maximal cytotoxicity (CC50) was put at 2000 ± 400 nM.
For `CC(C)OC(=O)[C@H](C)N[P@@](=O)(OC[C@H]1O[C@@H](n2ccc(=O)[nH]c2=O)[C@](C)(F)[C@@H]1O)Oc1ccccc1` [PSI-7976], the “Cell Viability (%) Mean” value came out at 94% in series [1] (50 nM), 99% in series [1] (500 nM) and 107% in series [1] (5000 nM). For the same molecule, the “Relative ZsG (%) Mean” value in series [2] (50 nM) amounted to 96%; in series [2] (500 nM) it was 80%; in series [2] (5000 nM) it was 124%.
`COC1=CC(c2cc3ccccc3[nH]2)=N/C1=C\c1[nH]c(C)cc1C` [Obatoclax] gave a half-maximal cytotoxic concentration (CC50) in series [1] of 1500 ± 332 nM. Moreover, the “SI (selectivity index, CC50 divided by EC50)” value in series [2] was 4.2. For the same molecule, in series [2] (setting [4]), the EC50 stood at 360 ± 100 nM. The activity at 0.05 µM in series [2] (Mammarenavirus lujoense, 50 nM) turned out to be 36%. Further, in series [2] (setting [5]), the activity at 0.5 µM amounted to 4%. Besides, in series [2] (setting [6]), the activity at 5 µM is 10%. The EC50 in series [2] (setting [7]) turned out to be 355 ± 105 nM. In addition, in series [3], the viability at 0.05 µM amounted to 130%, the viability at 0.5 µM came out at 25%, the viability at 5 µM turned out to be 2% and half-maximal cytotoxicity (CC50) was put at 1500 ± 330 nM.
On to `[N-]=[N+]=N[C@]1(CO)O[C@@H](n2ccc(N)nc2=O)[C@H](O)[C@@H]1O` [R-1479], for which the “Cell Viability (%) Mean” value in series [1] (50 nM) was 104%; in series [1] (500 nM) it was 101%; in series [1] (5000 nM) it was 96%. Besides, the figures for the “Relative ZsG (%) Mean” value in series [2] (50 nM), in series [2] (500 nM) and in series [2] (5000 nM) were 118%, 100% and 103%, respectively.
`CN(C)C/C=C/C(=O)Nc1cc2c(Nc3ccc(F)c(Cl)c3)ncnc2cc1O[C@H]1CCOC1` [Afatinib]: the CC50 in series [1] came out at 7640 ± 699 nM. In addition, the “SI (selectivity index, CC50 divided by EC50)” value in series [2] amounted to 3.4. Further, the EC50 in series [2] (setting [4]) came to 2260 ± 730 nM. In addition, the activity at 0.05 µM in series [2] (Mammarenavirus lujoense, 50 nM) came to 76%. In series [2] (setting [5]), the activity at 0.5 µM was 74%. In series [2] (setting [6]), the activity at 5 µM was found to be 2%. The EC50 in series [2] (setting [7]) is 2260 ± 734 nM. In series [3], the viability at 0.05 µM was 126%, the viability at 0.5 µM came to 136%, the viability at 5 µM is 60% and the CC50 was found to be 7640 ± 700 nM.
With `Cc1c(-c2ccc(O)cc2)n(Cc2ccc(OCCN3CCCCCC3)cc2)c2ccc(O)cc12` [Bazedoxifene HCL], the CC50 in series [1] turned out to be 6680 ± 2080 nM. Besides, in series [2], the “SI (selectivity index, CC50 divided by EC50)” value was 3.9. Also, the EC50 in series [2] (setting [4]) was found to be 1720 ± 790 nM. Further, the activity at 0.05 µM in series [2] (Mammarenavirus lujoense, 50 nM) was 110%. The activity at 0.5 µM in series [2] (setting [5]) was 103%. The activity at 5 µM in series [2] (setting [6]) was 2%. In addition, the EC50 in series [2] (setting [7]) came to 1720 ± 481 nM. In addition, in series [3], the viability at 0.05 µM amounted to 141%, the viability at 0.5 µM stood at 147%, the viability at 5 µM stood at 84% and the 50% cytotoxic concentration (CC50) was found to be 6680 ± 2080 nM.
Turning to `CCCCCCCCCCCCCCCCn1cc[n+](Cc2ccccc2)c1C.[I-]` [NH125], the results for the “Cell Viability (%) Mean” value in series [1] (50 nM), in series [1] (500 nM) and in series [1] (5000 nM) were 104%, 63% and 1%, respectively. For the same molecule, the results for the “Relative ZsG (%) Mean” value in series [2] (50 nM), in series [2] (500 nM) and in series [2] (5000 nM) were 60%, 28% and 2%, respectively.
